Test results: patent EP2067861A1, “Animals of the rattus genus wherein msh6 expression is functionally decreased and methods for the generation of specific mutants therefrom” (Koninklijke Nederlandse Akademie van Wetenschappen, priority 2007, dated 2009)
“And” between values parts separate entries of the source, which are not always exact repeats. Identical values can stand only once.

What was measured:
msh6^-/- male rats = assay: Survival of ENU treated msh6^-/- male rats; type: in vivo, rat; conditions: for # Surviving founders: 3 x 30 mg/kg bodyweight ENU
Source text: • Figure 1. Characteristics of the msh6^-/- rat. (A) Genomic organization of the msh6 gene in rats. The arrow marks the position of the ENU-induced mutation that results in a premature stop codon. The sequence trace indicates the T to A […] in a heterozygous rat. (B) Western blot (WB) of testes and cultured rat embryonic fibroblast (CREF) lysates stained with antibodies against human MSH6 (160 kDa). Lysate of human embryonic kidney (HEK) cells was loaded as a positive control. MSH6 protein is completely absent in msh6^-/- testes and CREF. Coomassie brilliant blue staining (CBB) was used as a control for protein loading. • Figure 2. Microsatellite instability in the germ line. (A) A mononucleotide repeat of 20 repetitive subunits (G)20 was analyzed in a cross between a msh6^-/- father and a wild type mother and their msh6^+/- offspring. The red line indicates the size of the most prominent amplification product in both parents. In the DNA sample of the offspring one of the alleles has lost one repetitive subunit. (B) Fragment analysis of a dinucleotide repeat (CA)36 that is polymorphic between the founder animals. […] The orange peaks represent the size marker that was loaded to determine the size of the PCR product. • Figure 3. Survival of the msh6^-/- rats. The time the rats became moribund is recorded. Red line, msh6^-/- rats (n=17); black line, control group (n=100, Source Harlan). • Figure 4. Tumors observed in the msh6^-/- rat. (A) Section of a mediastinal lymphoblastic lymphoma of a msh6^-/- male rat stained with HE. (B) A higher magnification of the lymphoblastic lymphoma. (C) Section of a leiomyosarcoma of the endometrium stained with HE. (D) Section of an endometrial carcinoma stained with HE. (E) A higher magnification of the endometrial carcinoma. (F) A section of a squamous cell carcinoma in the stomach of a msh6^-/- female rat stained with HE. (G) Section of a fibroadenoma of a msh6^-/- male rat stained with HE. (H) Section of a liver with lymphoblastic lymphoma leukemia stained with HE. (I) Section of a testicle containing a Leydig cell tumor stained with HE. • Figure 5. Survival of msh6^-/- male rats after treatment of different concentrations of ENU compared to untreated msh6^-/- male rats. Time points of the last ENU injection and the beginning of the mutation discovery screen are indicated. • Figure 6. ENU-induced target-selected knockout protocol. (A) Msh6^-/- males were mutagenized and crossed with wild-type Wistar females. At two weeks of age tissue samples from the F1 progeny were taken and DNA was isolated. (B) For every DNA samples 768 pre-selected amplicons were PCR amplified and dideoxy sequenced. (C) Sequence traces for the same amplicon of the different animals was aligned, processed with PolyPhred (Nickerson et al, (1997) Nucleic Acids Res 25, 2745-51) and analyzed using in house developed software. (D) ENU-induced de novo mutations were verified by independent PCR amplification and sequencing and pups carrying interesting mutations were weaned. The whole procedure from taking tissue samples to weaning interesting mutants takes 1 week, indicated in the centre of the figure. • Figure 7. ENU-induced mutation spectrum in MSH6 deficient background compared to MMR proficient animals. […] (B) The change of introducing a premature stop codon with ENU-induced MSH6 proficient and deficient mutation spectra. For the calculations the sequences of the 768 representative exon-containing amplicons were used (* indicates significance, p < 0.05).
All experiments were approved by the Animal Care Committee of the Royal Dutch Academy of Science according to the Dutch legal ethical guidelines. Experiments were designed to minimize the number of required animals and their suffering. Male MSH6 knockout rats (Msh6^1Hubr) of 12 weeks of age were given three weekly intraperitoneal injections of 25, 30 and 35 mg/kg bodyweight ENU. […]

wild-type rats = conditions: cited from earlier work
wild-type males = assay: Survival of ENU treated wild-type males (previous studies); type: in vivo, rat; conditions: unpublished data
Source text: The efficiency of ENU is dependent of the dose, reflected by a higher mutagenicity after three weekly administrations of low doses of the mutagen compared to a single high-dose injection (Justice et al. (2000) Mamm Genome 11, 484-8). Furthermore it has been shown that higher ENU concentrations increase the mutation frequency (Smits et al. (2004) Pharmacogenet Genomics 16, 159-69; Smits and Cuppen (2006) Trends Genet. 22, 232-40). To determine the optimal ENU concentration we performed an ENU dose-response experiment and determined the fertility of the founders. At 12 weeks of age msh6^-/- males were treated with 3 weekly doses of different concentrations of the mutagen. Fertility was determined after a full cycle of spermatogenesis (± 10 weeks) by breeding and/or histological analysis of the testes. At concentrations of 35, 30 and 25 mg/kg, respectively 1/8, 5/8 and 4/6 males were fertile (Table 5). Compared to earlier studies, where at 40 and 35 mg/kg ENU respectively 6/10 and 10/10 rats are fertile (Smits and Cuppen (2006) Trends Genet. 22, 232-40), this is a considerable decrease. It is known that MSH6 deficiency reduces lifespan in both rats (van Boxtel et al. (2007) submitted) and mice (Edelmann (1997) Cell 91, 467-77) as a result of tumor development. MSH6 deficiency increased ENU sensitivity not only in fertility, but also in survival. […]

A:T base pairs = conditions: Justice et al. (1999); cited from earlier work
Control = Control 3 x 40 mg/kg ENU, cited from earlier work
[1] = 362 pups, 37,27 x 10^6 bases screened

Question: With `CCN(N=O)C(N)=O` [ENU, N-ethyl-N-nitrosourea] as the compound, how does the “# Surviving founders” value (msh6^-/- male rats; 17 - 19 weeks after last injection) read?
Answer: The value was 5/5.

Question: What about the “# Surviving founders” value (msh6^-/- male rats; 20 - 22 weeks after last injection) of the same compound?
Answer: Its value is 5/5.

Question: And the “# Surviving founders” value (msh6^-/- male rats; 23 - 25 weeks after last injection)?
Answer: Its value is 5/5.

Question: What about the “# Surviving founders” value (msh6^-/- male rats; 26 - 29 weeks after last injection) of the same compound?
Answer: Its value is 3/5.

Question: What about the “age after which no male was alive” value (msh6^-/- male rats; ENU treated msh6^-/- males) of the same compound?
Answer: Its value is no more than 50 weeks.

Question: And the “average mean of survival” value (msh6^-/- male rats; ENU treated msh6^-/- males (untreated msh6^-/- rats: median survival 14 months))?
Answer: The value was 37 ± 3 weeks.

Question: And the “average mean of survival” value (msh6^-/- male rats; ENU treated msh6^-/- males, same value restated in months)?
Answer: The value was roughly 8 months.

Question: And the “# Surviving founders” value (msh6^-/- male rats; fertile msh6^-/- males, 14 - 16 weeks after last injection)?
Answer: The value was 5/5.

Question: And the rats fertile (wild-type rats; 35 mg/kg ENU, earlier studies (Smits and Cuppen 2006))?
Answer: The rats fertile was 10/10.

Question: And the “# Fertile males” value (wild-type rats; Control 3 x 40 mg of ENU per kg bodyweight, 10 males injected)?
Answer: The value was 6/10 and 6.

Question: What about the “survived till 1,5 years of age” value (wild-type males; 35 mg/kg bodyweight ENU) of the same compound?
Answer: Its value is 9 out of 10.

Question: What about the “survived till 1,5 years of age” value (wild-type males; 40 mg/kg bodyweight ENU) of the same compound?
Answer: The value was 10 out of 10.

Question: What about the “A:T->C:G transversions” value (A:T base pairs) of the same compound?
Answer: Its value is 5%.

Question: What about the “A:T->G:C transitions” value (A:T base pairs) of the same compound?
Answer: Its value is 38%.

Question: What about the “A:T->T:A transversions” value (A:T base pairs) of the same compound?
Answer: The value was 44%.

Question: What about the “G:C ->A:T transitions” value (A:T base pairs) of the same compound?
Answer: The value was 8%.

Question: And the “G:C->C:G transversions” value (A:T base pairs)?
Answer: The value was 3%.

Question: And the “G:C->T:A transversions” value (A:T base pairs)?
Answer: The value was 2%.

Question: And the missense mutations (A:T base pairs)?
Answer: The missense mutations was “about 64%”.

Question: And the nonsense mutations (A:T base pairs)?
Answer: Its nonsense mutations is roughly 10%.

Question: What about the splicing errors (A:T base pairs) of the same compound?
Answer: The splicing errors was roughly 26%.

Question: What about the “# Mutations - nonsense” value (Control; [1]) of the same compound?
Answer: The value was 0.

Question: What about the “# Mutations - total” value (Control; [1]) of the same compound?
Answer: Its value is 30.

Question: And the “# Mutations - missense” value (Control)?
Answer: The value was 17.

Question: And the “# Mutations - non-coding” value (Control)?
Answer: The value was 6.

Question: And the “# Mutations - silent” value (Control)?
Answer: The value was 7.

Question: And the “Mutation Frequencies” value (Control; highest ENU-induced mutation frequency in rats)?
Answer: Its value is 8.05 x 10^-7.
